Measurements as given in patent EP0075436B1, “Substituted 4,5-dihydro-6-(substituted)-phenyl-3(2H)-pyridazinones and 6-(substituted)phenyl-3(2H)-pyridazinones” (WARNER-LAMBERT COMPANY, priority 1981, dated 1983).

Tests used:
[1] = test system: pentobarbital-anesthetized dog; assay: Test for in vivo myocardial inotropic activity in anesthetized dog; details: intravenous; for % Change Blood Pressure: aortic blood pressure; for % Change Myocardial Contractility: dP/dt of left ventricular blood pressure
Experimental: Test for in vivo myocardial inotropic activity in anesthetized dog This screen consists of determining the effects of increasing intravenous doses of compound on myocardial contractility (dP/dt mad of left ventricular blood pressure), heart rate and aortic blood pressure of the pentobarbital-anesthetized dog. Adult mongrel dogs of either sex are anesthetized with pentobarbital, 35 mg/kg, IV, and are subsequently maintained under anesthesia with a continuous infusion of pentabarbital, 3.5 mg/kg/hour. The trachea is intubated but the animals are permitted to breathe spontaneously. A cannula is inserted into the femoral vein for administrating test agents. A Millar catheter tip pressure transducer or a fluid filled catheter is inserted into the ascending aorta via the femoral artery for measuring aortic blood pressure. A Millar catheter tip pressure transducer is passed into the left ventricle via the left carotid artery for measuring left ventricular blood pressure. Needle electrodes are.placed subcutaneously for recording a lead II electrocardiogram (ECG). Left ventricular and aortic blood pressures are recorded on a strip chart recorder. Heart rate, using a . biotachometer triggered from the R wave of the ECG, and the first derivative of left ventricular blood pressure (dP/dt), obtained with a differentiator amplifier coupled to the corresponding pressure amplifier, are also recorded. A period of at least 30 minutes is utilized to obtain control data prior to administration of test compound. Depending on solubility, the compounds are dissolved in 0.9% saline solution or in dilute HCI or NaOH (0.1 or 1.0 N) and are diluted to volume with normal saline. Ethanol or dimethylacetamide can be used as solvents if adequate dilutions can be made. Appropriate vehicle controls are administered when needed. Each dose of the test compound is administered in volume of 0.1 ml/kg over a period of one minute.

conscious rat = assay: Direct monitoring of aortic blood pressure and heart rate from conscious rats; type: in vivo; details: doses 1, 3, 10, and 30 mg/kg
Description: A method for the direct monitoring of aortic blood pressure and heart rate from conscious rats
The continuous monitoring of pulsatile blood pressure from unrestrained conscious rats surgically equipped with polyethylene cannulas was accomplished by means of a computer assisted data capture scheme (CADCS). The basic elements of the methodology are the cannulation procedure and the CADCS. Method
Cannulation Procedure: Rats were anesthetized with Telazol (1:1 tiletamine HCI and zolazepam HCI; WU PD, Ann Arbor, MI) 20-40 mg/kg IM and the descending aorta exposed via a midline incision. Cannulus fabricated from polyethylene tubing (Clay Adams, Parsippany, NJ) were inserted into the aorta via an undersized puncture hole below the renal arteries. The puncture hole was made by a 23 G disposable needle with a section of the aorta clamped off above and below the puncture site. The cannulas, consisting of a PE100 (0.86 mm ID) body and a PE50 (0.58 mm ID) tip, were attached to a trocar, inserted through the psoas muscle, and passed subcutaneously along the midline of the back and externalized between the ears. The cannulas were anchored to the psoas muscle and between the scapulae (3-0 green braided suture; Deknatel, Queens Village, NY). The midline incision was closed in two steps (muscle first, skin second) using continuous over-and-over sutures (4-0 chronic; Ethicon, Somerville, NJ). Each rat was then given penicillin 30,000 units subcutaneously (Penicillin G Procaine Sterile Suspension; Parke-Davis, Detroit, MI).
The rats were fitted with a harness-spring-swivel assembly designed to protect the cannula and to provide the rat relative freedom of movement. The harnesses were fabricated from nylon hook and loop tape (Velcro, Manchester, NH) cemented to a metal plate to which spring wires (18-8 stainless steel, Paragon Spring; Chicago, IL) were attached to brass swivels (BRS/LVE, Bellville: MD). Each polyethylene cannula was channeled through a spring and connected through a swivel to a pressure transducer (Model P23Gb; Statham Instruments; Hato Rey, Puerto Rico) and an infusion pump (Sage model 234-7; Orion Research, Cambridge, MA) by means of PE100 tubing. While on test, each rat received a continuous slow infusion of heparinized saline solution […] or 40 units of heparin per 24-hour period) to prevent clot formation. Additional "flushes" of the cannula with heparinized saline were carriedd out when the aortic pulse pressure (systolic minus diastolic) was less than 25 mm Hg.
CADCS: The pulsatile blood pressure and heart rate of each of 32 rats was monitored every minute by means of two in-laboratory microcomputers communicating directly with a data concentrator computer. The data were first stored on the data concentrator disk and then transferred to a magnetic tape for analysis and report generation by the main research computer (Varian V-74 or IBM). The overall scheme involved modulating the primary signal from the pressure transducer, generating the primary data set of the one- minute values for systolic, diastolic, and mean blood pressures and heart rate by the in-lab microcomputer and the storage, analysis, and report generation by the main research computer.
The transducers were connected to analog signal conditioning modules. The modules provided a regulated excitation voltage for the transducers, amplification as required to interface the microprocessors and an active low pass filter to compensate for the pressure wave form distortion produced by the flexible, fluid filled, narrow lumened cannula. The distortion was 22-26 Hz and thus provided a reliable estimate of both systolic and diastolic blood pressure.
The microcomputers (one for each of two groups of 16 rats) were connected to the input components through the module interface units, an analog-to-digital converter for the pressure wave form signal and the digital inputs for the dose and event marker switches. […]

SMILES | % Change Heart Rate ([1]; dose 0.01 mg/kg) [%] | % Change Blood Pressure ([1]; dose 0.01 mg/kg) [%] | % Change Myocardial Contractility ([1]; dose 0.01 mg/kg) [%] | % Change Heart Rate ([1]; dose 0.10 mg/kg) [%] | % Change Blood Pressure ([1]; dose 0.10 mg/kg) [%] | % Change Myocardial Contractility ([1]; dose 0.10 mg/kg) [%] | aortic blood pressure (conscious rat) | % Change Heart Rate ([1]; dose 0.03 mg/kg) [%] | % Change Blood Pressure ([1]; dose 0.03 mg/kg) [%] | % Change Myocardial Contractility ([1]; dose 0.03 mg/kg) [%] | % Change Heart Rate ([1]; dose 0.31 mg/kg) [%] | % Change Blood Pressure ([1]; dose 0.31 mg/kg) [%] | % Change Myocardial Contractility ([1]; dose 0.31 mg/kg) [%] | other results
O=C1CCC(c2cccc(-n3ccnc3)c2)=NN1 [Example 6, 4,5-Dihydro-6-[3-(1-imidazol-1-yl)phenyl]-3(2H)-pyridazinone] | −2.0 | 1.0 | 6 | −1.0 | −1.0 | 36 | significant reduction | – | – | – | – | – | – | % Change Heart Rate ([1]; dose 0.30 mg/kg): 2.0%; % Change Blood Pressure ([1]; dose 0.30 mg/kg): −8.0%; % Change Myocardial Contractility ([1]; dose 0.30 mg/kg): 71%; % Change Heart Rate ([1]; dose 1.0 mg/kg): 11.0%; % Change Blood Pressure ([1]; dose 1.0 mg/kg): −20.0%; % Change Myocardial Contractility ([1]; dose 1.0 mg/kg): 114%
O=C1CCC(c2ccc(-n3ccnc3)cc2)=NN1 [Example 3a, 4,5-Dihydro-6-[4-(1H imidazol-1-yl)phenyl]-3(2H)-pyridazinone] | −4.0 | −2.0 | 9 | −1.0 | −10.5 | 57 | – | −4.0 | −6.0 | 32 | 2.0 | −21.5 | 87 | –
O=C1CCC(c2ccc(-n3cnc4c3CCCC4)cc2)=NN1 [Example 8, 4,5-Dihydro-6-[4-(4,5,6,7-tetrahydro-1H-benzimidazol-1-yl)phenyl]-3(2H)-pyridazinone] | −3.0 | −2.5 | 10 | −17.0 | −11.0 | 51 | significant reduction | −15.0 | −7.0 | 21 | −18.0 | −17.0 | 95 | % Change Heart Rate ([1]; dose 1.0 mg/kg): −7.0%; % Change Blood Pressure ([1]; dose 1.0 mg/kg): −27.0%; % Change Myocardial Contractility ([1]; dose 1.0 mg/kg): 127%
O=c1ccc(-c2ccc(-n3ccnc3)cc2)n[nH]1 [Example 13a, 6-[4-(1H-Imidazol-1-yl)phenyl]-3(2H)-pyridazinone] | 0.0 | 0.0 | 3 | 16.0 | −6.0 | 40 | – | 6.0 | −1.5 | 15 | 32.0 | −9.0 | 78 | –
O=c1ccc(-c2ccc(-n3cnc4c3CCCC4)cc2)n[nH]1 [Example 15, 6-[4-(4,5,6,7-Tetrahydro-1H benzimidazol-1-yl)phenyl]-3(2H)-pyridazinone] | – | – | – | – | – | – | significant reduction | – | – | – | – | – | – | –
O=C1CCC(c2ccc(OCCn3ccnc3)cc2)=NN1 [Example 12, 4,5-Dihydro-6-[4-[2-(1H-imidazol-1-yl)ethoxy]phenyl]-3(2H)-pyridazinone] | – | – | – | – | – | – | significant reduction | – | – | – | – | – | – | –
O=C1CCC(c2ccc(-n3cnnc3)cc2)=NN1 [Example 10] | – | – | – | – | – | – | significant reduction | – | – | – | – | – | – | –
O=c1ccc(-c2ccc(OCCn3ccnc3)cc2)n[nH]1 [Example 16, 6-[4-[2-(1H Imidazol-1-yl)ethoxy]phenyl]-3(2H)-pyridazinone] | – | – | – | – | – | – | significant reduction | – | – | – | – | – | – | –
O=c1ccc(-c2cccc(-n3ccnc3)c2)n[nH]1 [Example 14, 6-[3-(1H-Imidazol-1-yl)phenyl]-3(2H)-pyridazinone] | – | – | – | – | – | – | significant reduction | – | – | – | – | – | – | –
O=C1CCC(c2ccc(-n3cccc3)cc2)=NN1 [Example 11, 4,5-Dihydro-6-[4-(H-pyrrol-1-yl)phenyl]-3(2H)-pyridazinone] | – | – | – | – | – | – | significant reduction | – | – | – | – | – | – | –
